Data from patent US6787531B1, “Pharmaceutical composition for use as a contraceptive” (Schering AG, priority 1999, dated 2004).

What was measured:
[1] = Absolute bioavailability of drospirenone after oral administration; conditions: female, human, in vivo
[2] = Dissolution of drospirenone from tablets, USP XXIII Paddle Method; type: physicochemical; conditions: 900 ml water, 37° C., 50 rpm
Method: Instead of providing the drospirenone in micronized form, it is possible to dissolve it in a suitable solvent, e.g. methanol or ethyl acetate, and spray it onto the surface of inert carrier particles followed by incorporation of the particles containing drospirenone on their surface in the composition.
The rate of dissolution of drospirenone from the tablets prepared in Example 1 is determined by the USP XXIII Paddle Method using a USP Dissolution Test Apparatus 2 including 6 covered glass vessels and 6 paddles. Tablets are placed in 900 ml water at a temperature of 37° C. (±0.5° C.) and stirred at 50 rpm.

[3] = Solubility and chemical stability of the active substances; type: physicochemical; conditions: for solubility: water and aqueous buffers at various pH values
Excerpt: To ensure good bioavailability of the compound, it is therefore advantageously provided in a form that promotes rapid dissolution thereof.
This has the added advantage of facilitating a more homogenous distribution of the ethinylestradiol throughout the composition which might otherwise be difficult to obtain because ethinylestradiol is incorporated in extremely small amounts. When ethinylestradiol is provided in micronized form, it preferably has the following particle size distribution as determined under the microscope: 100% of the particles have a diameter of ≦15.0 μm, 99% of the particles have a diameter of ≦12.5 μm, 95% of the particles have a diameter of ≦10.0 μm, and 50% of the particles have a diameter of ≦3.0 μm. Furthermore, no particle is larger than 20 μm, and […] have a diameter of ≧15 μm and ≦20 μm.

[4] = Relative bioavailability of drospirenone and ethinylestradiol from tablets versus oral suspension, open-label crossover study; type: in vivo; conditions: female, human, tablet 3 mg drospirenone + 0.03 mg ethinylestradiol, healthy women, serum concentrations, read-out: relative bioavailability from the tablets compared to the oral suspension
Method: 42 healthy women between 18 and 35 years of age were included in an open-label crossover study after their informed consent had been obtained. The aim of the study was to investigate the relative bioavailability of drospirenone and ethinylestradiol from a tablet formulation containing 3 mg drospirenone and 0.03 mg ethinylestradiol with reference to an oral suspension containing 6 mg of drospirenone and 0.06 mg ethinylestradiol per vial.
The bioavailability was determined using serum concentrations of each active agent as parameters. […] It was therefore concluded that both drospirenone and ethinylestradiol are completely released from the tablets in vivo.

Row | bioavailability ([1]; oral administration of 2 mg drospirenone, 8 young healthy women) [%] | bioavailability ([1]; oral microcrystalline suspension containing 3.13 mg drospirenone, 6 postmenopausal women) [%] | drospirenone dissolved within 30 minutes ([2]; film-coated tablets, FIG. 3) | drospirenone dissolved within 30 minutes ([2]; tablet cores, FIG. 2) | stability under acid conditions ([3]; acid conditions) | stability under alkaline conditions ([3]; alkaline conditions) | solubility [3] | bioavailability [4] [%] | SMILES
1 | 76 | 85 | more than 70% | more than 70% | rearranged to an inactive isomer | hydrolysed | sparingly soluble | 107 | C[C@]12CCC(=O)C=C1[C@@H]1C[C@@H]1[C@H]1[C@@H]3[C@@H]4C[C@@H]4[C@@]4(CCC(=O)O4)[C@@]3(C)CC[C@@H]12 [drospirenone, 6β,7β;15β,16β-dimethylene-3-oxo-17α-pregn-4-ene-21,17-carbolactone]
2 | – | – | – | – | – | – | sparingly soluble | 117 | C#C[C@]1(O)CC[C@H]2[C@@H]3CCc4cc(O)ccc4[C@H]3CC[C@@]21C [ethinylestradiol, 17α-ethinylestradiol]
